Converted amounts (≈) assume the structure as drawn. “Also recorded” adds a separate entry of the source. Read-outs that look alike come from different tables or passages of the source.

Experimental findings from patent publication US8815863B2, “Compounds and therapeutic use thereof for protein kinase inhibition” (priority 2009, dated 2014) are described below.

The target in one data set is T1, Chk2 (Homo sapiens, UniProt O96017).
T1 construct: purchased Upstate Biotechnology, Inc
The data set is described as follows: Kinase activity measurement (K-LISA), Chk2. Format: biochemical. How it is done:
(§1) The K-LISA™ Chk-1/Chk2 Activity Kit was supplied by Calibiochem (Cat. No. CBA020). Chk1 and Chk2 are from Upstate Biotechnology, Inc., and C-Met, HER2, EGFR are from Sigma. The Chk Peptide ([…]) (SEQ ID NO: 1) is from Cell Signaling, Inc., (Beverly, Mass., USA), and is stored at −70° C.
(§2) Kinase activity measurements: Enzyme, sample, Chk peptide, 5 μm ATP, and reaction buffer are added to the holes of biotinylated reaction plates. After the reaction is terminated with a stop buffer, the contents are discarded, replaced with 100 μl/hole of serine kinase antibody, to detect phosphorylation, and HRP-labeled goat-anti-rabbit IgG is added and incubated at room temperature for 1 hour. TMB reaction is conducted to determine substrate phosphorylation, with proper controls. OD450 is measured using VERSAmax (Sunnyvale, Calif., USA). The rate of inhibition is calculated as the follows: Rate of Inhibition (I)=(reaction hole OD Value−OD value of Enzyme-free control)/(OD value of negative control−OD value of enzyme-free control)×100%.

Data set [1] deals with Human colon cancer HT-29. Kind of data set: In vitro anti-cancer cell activity, HT-29. Format: cell-based. The note with it: read-out: In vitro anti-cancer cell activities IC50, Human colon cancer HT-29. How it is done: (§3) Some of the above compounds are tested in vitro or in vivo for their anti-cancer or anti-tumor activities, as well as cellular toxicity tests using SRB and MTT methods. The in vitro anti-cancer effects on human cancer HT-29 and mouse lung cancer cell 3LL are summarized in Table 1, and the effects on treating transplanted human colon cancer […] on nude mice are summarized in Table 2.

The next data set deals with Mouse Lung Cancer (3LL). Kind of data set: In vitro anti-cancer cell activity, 3LL. Type of data set: cell-based. The conditions noted are these: read-out: In vitro anti-cancer cell activities IC50, Mouse Lung Cancer (3LL). As for the experimental part:
as §3

In a further data set the test system is HT-29 Cell line. The data set is described as follows: SRB cell multiplication test, sensitizing to cytotoxic antitumor drugs. The conditions noted are these: for sensitizing effects on cytotoxic antitumor drugs at the cellular level (in words): DDP, 5-fu, pemetrexed, oxaliplatin as named in the sentence.
In data set [2] the test system is human liver cancer QGY-7701. The data set is described as follows: MTT cytotoxicity, QGY-7701. Type of data set: cell-based. As for the experimental part:
(§4) Cell lines: human low differentiation stomach cancer BGC-823, human liver cancer QGY-7701, mouse lung cancer 3LL.
(§5) Experimental Details: The cyto-toxicity of XC608 is measured using the MTT method. Specifically: (1) cell culture: (i) frozen cells are removed from liquid nitrogen, rapidly thawed in 37° C. water bath; added to 6 ml DMEM culture medium in a 10 ml centrifuge tubes under sterile conditions, centrifuged at 1000 rpm for 5 min., with the supernatant removed. To the sediment is added 5-6 ml of DMEM medium, and re-suspended and cultured overnight at 37° C. (ii) The cells are centrifuged, washed twice with PBS, and treated with 3-4 drops of trypsin solution for about 3 minute at 37° C., and monitored under microscope to ensure that all cells are separated from the culture tube walls, and re-suspended in additional DMEM medium. […] (2) Test compound preparation: XC608 and XC302 are dissolved in PBS and serial diluted to 1000, 100, 10, 1, 0.1 and 0.01 μg/ml. (3) The prepared test compound solution is added to the holes of a 96-hole culture plate, 10 μl/hole, with two holes per concentration point, and 10 μl PBS as control. (4) Prepare a suspension of log phase cell in a DMEM medium containing 10% new born bovine serum with a cell concentration of 2×10^5/ml.
(§6) (5) add 90 μl cell suspension to each of the holes containing the test compound or control. […]

Another data set has as its system mouse lung cancer 3LL. Kind of data set: MTT cytotoxicity, 3LL. Format: cell-based. The conditions noted are these: 48 hours. As for the experimental part: as §4, §5, §6
The test system of data set [3] is human low differentiation stomach cancer BGC-823. The data set is described as follows: MTT cytotoxicity, BGC-823. Format: cell-based. As for the experimental part:
as §4, §5, §6

The next data set concerns the target T2, Chk1 (Homo sapiens, UniProt O14757).
T2 construct: purchased Upstate Biotechnology, Inc
T2 sequence (O14757 1-476): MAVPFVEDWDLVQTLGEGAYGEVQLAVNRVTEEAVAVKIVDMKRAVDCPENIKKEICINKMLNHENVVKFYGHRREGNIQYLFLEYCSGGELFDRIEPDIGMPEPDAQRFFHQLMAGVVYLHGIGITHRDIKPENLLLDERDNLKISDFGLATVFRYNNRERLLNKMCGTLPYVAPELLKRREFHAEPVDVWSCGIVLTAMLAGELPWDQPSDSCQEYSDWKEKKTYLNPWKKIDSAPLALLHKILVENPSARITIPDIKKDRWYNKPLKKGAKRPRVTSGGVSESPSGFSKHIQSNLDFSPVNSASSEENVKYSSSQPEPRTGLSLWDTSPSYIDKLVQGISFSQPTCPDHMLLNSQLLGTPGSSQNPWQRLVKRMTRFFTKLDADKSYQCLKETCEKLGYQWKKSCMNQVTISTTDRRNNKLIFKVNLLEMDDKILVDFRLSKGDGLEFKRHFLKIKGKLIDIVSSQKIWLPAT
The data set is described as follows: Kinase activity measurement (K-LISA), Chk1. Format: biochemical. As for the experimental part:
The K-LISA™ Chk-1/Chk2 Activity Kit was supplied by Calibiochem (Cat. No. CBA020). Chk1 and Chk2 are from Upstate Biotechnology, Inc., and C-Met, HER2, EGFR are from Sigma.
as §2, with “After” for “Kinase activity measurements: Enzyme, sample, Chk peptide, 5 μm ATP, and reaction buffer are added to the holes of biotinylated reaction plates. After”

Data set [4] relates to human colon cancer HT-29. Kind of data set: Nude mice transplanted with human colon cancer HT-29, XC608 with ADR and 5-fu. Type of data set: in vivo. The conditions noted are these: HT-29 in nude mice. How it is done:
(§7) Nude mice transplanted with human colon cancer HT-29 and SW-620 and breast cancer MDA-MB-231 are tested using XC608 alone and in combination with ADR and 5-fu.

In a further data set the target is T3, c-Met (Homo sapiens, UniProt P08581).
T3 construct: purchased Sigma
The data set is described as follows: Kinase activity measurement, c-Met. Format: biochemical. How it is done:
as §1, §2

The target in a further data set is T4, EGFR (Homo sapiens, UniProt P00533).
T4 construct: purchased Sigma
The data set is described as follows: Kinase activity measurement, EGFR. Format: biochemical. As for the experimental part: as §1, §2

The target in the next data set is T5, HER2 (Homo sapiens, UniProt P04626).
T5 construct: purchased Sigma
Kind of data set: Kinase activity measurement, HER2. Type of data set: biochemical. As for the experimental part: as §1, §2

Data set [5] concerns human colon cancer SW-620. The data set is described as follows: Nude mice transplanted with human colon cancer SW-620, XC608 with ADR and 5-fu. Type of data set: in vivo. The conditions noted are these: SW-620 in nude mice. How it is done: as §7
Another data set has as its system cdc2 phosphorylation. The data set is described as follows: cdc2 phosphorylation induced by topoisomerase I. Format: cell-based. An excerpt:
The effects of XC608 on the activity of protein kinases Chk1, Chk2 and c-met, and on cells entering cell cycle after drug-induced DNA damages and cellular reactions to DNA damages are studied.

Setting [6] is: Homo sapiens, HT-29, 72 h, read-out: IC50 Drug alone.
[7] abbreviates: read-out: IC50 +10 nM AZD7762, HT-29, SRB, 72 hours, drug +10 nM AZD7762.
Where [8] appears, read: read-out: IC50 +100 nM AZD7762, HT-29, SRB, 72 hours, drug +100 nM AZD7762.
[9] abbreviates: read-out: IC50 +1 μM XC608, HT-29, SRB, 72 hours, drug +1 μM XC608.
[10] abbreviates: read-out: IC50 Drug alone, HT-29, SRB, 72 hours, drug alone.

T1 sequence (O96017 whole entry): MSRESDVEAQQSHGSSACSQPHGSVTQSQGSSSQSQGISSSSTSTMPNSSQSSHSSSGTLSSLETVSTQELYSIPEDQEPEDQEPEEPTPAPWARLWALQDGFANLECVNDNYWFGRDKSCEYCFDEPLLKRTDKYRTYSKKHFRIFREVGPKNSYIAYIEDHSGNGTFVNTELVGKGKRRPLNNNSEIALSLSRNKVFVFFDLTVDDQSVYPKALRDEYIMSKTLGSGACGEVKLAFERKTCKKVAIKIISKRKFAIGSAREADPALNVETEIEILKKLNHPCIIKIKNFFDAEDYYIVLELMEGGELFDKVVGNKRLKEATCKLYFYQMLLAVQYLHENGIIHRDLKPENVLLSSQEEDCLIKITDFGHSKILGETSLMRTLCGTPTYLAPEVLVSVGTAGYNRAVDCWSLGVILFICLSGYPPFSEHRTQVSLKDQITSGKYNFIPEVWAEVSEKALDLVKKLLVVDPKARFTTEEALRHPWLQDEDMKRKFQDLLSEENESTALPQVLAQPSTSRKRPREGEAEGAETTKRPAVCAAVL
T5 sequence (P04626 23-1255): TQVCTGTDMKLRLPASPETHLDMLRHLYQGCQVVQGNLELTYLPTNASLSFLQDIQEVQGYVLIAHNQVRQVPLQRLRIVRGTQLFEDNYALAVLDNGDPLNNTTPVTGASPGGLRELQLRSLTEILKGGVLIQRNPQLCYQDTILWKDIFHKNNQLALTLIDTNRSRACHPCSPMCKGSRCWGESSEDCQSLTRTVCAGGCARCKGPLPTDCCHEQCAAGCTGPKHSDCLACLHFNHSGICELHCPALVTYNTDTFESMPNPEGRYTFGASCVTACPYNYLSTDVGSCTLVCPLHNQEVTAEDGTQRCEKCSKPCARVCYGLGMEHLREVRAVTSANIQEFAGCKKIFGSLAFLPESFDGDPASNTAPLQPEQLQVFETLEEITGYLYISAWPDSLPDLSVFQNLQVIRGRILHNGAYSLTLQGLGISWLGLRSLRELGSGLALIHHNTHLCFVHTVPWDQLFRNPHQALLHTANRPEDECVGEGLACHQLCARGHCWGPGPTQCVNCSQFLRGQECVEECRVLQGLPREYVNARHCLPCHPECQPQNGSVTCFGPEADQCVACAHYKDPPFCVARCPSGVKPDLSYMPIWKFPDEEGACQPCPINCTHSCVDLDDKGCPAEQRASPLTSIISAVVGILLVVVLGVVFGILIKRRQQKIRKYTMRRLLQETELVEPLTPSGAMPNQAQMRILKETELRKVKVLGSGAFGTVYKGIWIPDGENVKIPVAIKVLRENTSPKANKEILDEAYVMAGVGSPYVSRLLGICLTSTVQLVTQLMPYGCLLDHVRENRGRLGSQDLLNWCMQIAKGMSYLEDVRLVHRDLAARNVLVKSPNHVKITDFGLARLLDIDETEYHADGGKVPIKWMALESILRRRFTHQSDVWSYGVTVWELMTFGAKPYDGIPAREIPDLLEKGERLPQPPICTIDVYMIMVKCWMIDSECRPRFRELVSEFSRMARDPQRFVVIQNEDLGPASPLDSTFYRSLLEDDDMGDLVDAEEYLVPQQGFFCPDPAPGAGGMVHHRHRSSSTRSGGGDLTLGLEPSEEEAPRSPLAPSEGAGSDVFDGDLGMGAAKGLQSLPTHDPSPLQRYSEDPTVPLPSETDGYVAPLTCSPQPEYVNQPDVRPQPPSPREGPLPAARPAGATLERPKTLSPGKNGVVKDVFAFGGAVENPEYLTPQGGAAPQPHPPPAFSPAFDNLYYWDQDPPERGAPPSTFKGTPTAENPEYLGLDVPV
T4 sequence (P00533 25-1210): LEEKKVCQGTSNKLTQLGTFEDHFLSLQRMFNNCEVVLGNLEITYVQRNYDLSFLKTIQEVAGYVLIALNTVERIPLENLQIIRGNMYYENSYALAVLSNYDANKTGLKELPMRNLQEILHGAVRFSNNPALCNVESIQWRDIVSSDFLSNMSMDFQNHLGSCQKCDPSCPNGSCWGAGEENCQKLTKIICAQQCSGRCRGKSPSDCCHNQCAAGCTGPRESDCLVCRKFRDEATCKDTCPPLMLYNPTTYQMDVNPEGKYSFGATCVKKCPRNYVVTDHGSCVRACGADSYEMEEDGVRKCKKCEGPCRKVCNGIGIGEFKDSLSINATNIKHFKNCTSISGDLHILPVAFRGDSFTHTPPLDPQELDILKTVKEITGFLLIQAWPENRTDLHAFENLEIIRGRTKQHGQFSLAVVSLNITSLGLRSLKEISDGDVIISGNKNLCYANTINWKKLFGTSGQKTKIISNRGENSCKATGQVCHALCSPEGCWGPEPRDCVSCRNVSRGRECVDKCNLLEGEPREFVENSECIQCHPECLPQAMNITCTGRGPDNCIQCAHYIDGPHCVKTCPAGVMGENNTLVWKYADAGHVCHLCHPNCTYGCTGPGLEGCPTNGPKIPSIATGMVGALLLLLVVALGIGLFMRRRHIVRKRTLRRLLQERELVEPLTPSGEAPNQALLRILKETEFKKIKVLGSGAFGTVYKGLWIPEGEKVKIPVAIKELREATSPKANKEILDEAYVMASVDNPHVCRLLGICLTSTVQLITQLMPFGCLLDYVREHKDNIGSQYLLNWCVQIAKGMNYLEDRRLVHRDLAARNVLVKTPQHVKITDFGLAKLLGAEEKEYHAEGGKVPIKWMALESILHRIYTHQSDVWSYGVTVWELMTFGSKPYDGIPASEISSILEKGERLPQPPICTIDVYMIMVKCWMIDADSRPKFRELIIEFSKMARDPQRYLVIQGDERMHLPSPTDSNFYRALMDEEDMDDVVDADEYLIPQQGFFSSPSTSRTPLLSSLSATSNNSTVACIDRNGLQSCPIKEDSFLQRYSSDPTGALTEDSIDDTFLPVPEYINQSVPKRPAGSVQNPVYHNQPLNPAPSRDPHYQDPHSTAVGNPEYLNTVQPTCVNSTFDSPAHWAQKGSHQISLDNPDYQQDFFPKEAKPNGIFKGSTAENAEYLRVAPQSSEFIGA
T3 sequence (P08581 25-1390): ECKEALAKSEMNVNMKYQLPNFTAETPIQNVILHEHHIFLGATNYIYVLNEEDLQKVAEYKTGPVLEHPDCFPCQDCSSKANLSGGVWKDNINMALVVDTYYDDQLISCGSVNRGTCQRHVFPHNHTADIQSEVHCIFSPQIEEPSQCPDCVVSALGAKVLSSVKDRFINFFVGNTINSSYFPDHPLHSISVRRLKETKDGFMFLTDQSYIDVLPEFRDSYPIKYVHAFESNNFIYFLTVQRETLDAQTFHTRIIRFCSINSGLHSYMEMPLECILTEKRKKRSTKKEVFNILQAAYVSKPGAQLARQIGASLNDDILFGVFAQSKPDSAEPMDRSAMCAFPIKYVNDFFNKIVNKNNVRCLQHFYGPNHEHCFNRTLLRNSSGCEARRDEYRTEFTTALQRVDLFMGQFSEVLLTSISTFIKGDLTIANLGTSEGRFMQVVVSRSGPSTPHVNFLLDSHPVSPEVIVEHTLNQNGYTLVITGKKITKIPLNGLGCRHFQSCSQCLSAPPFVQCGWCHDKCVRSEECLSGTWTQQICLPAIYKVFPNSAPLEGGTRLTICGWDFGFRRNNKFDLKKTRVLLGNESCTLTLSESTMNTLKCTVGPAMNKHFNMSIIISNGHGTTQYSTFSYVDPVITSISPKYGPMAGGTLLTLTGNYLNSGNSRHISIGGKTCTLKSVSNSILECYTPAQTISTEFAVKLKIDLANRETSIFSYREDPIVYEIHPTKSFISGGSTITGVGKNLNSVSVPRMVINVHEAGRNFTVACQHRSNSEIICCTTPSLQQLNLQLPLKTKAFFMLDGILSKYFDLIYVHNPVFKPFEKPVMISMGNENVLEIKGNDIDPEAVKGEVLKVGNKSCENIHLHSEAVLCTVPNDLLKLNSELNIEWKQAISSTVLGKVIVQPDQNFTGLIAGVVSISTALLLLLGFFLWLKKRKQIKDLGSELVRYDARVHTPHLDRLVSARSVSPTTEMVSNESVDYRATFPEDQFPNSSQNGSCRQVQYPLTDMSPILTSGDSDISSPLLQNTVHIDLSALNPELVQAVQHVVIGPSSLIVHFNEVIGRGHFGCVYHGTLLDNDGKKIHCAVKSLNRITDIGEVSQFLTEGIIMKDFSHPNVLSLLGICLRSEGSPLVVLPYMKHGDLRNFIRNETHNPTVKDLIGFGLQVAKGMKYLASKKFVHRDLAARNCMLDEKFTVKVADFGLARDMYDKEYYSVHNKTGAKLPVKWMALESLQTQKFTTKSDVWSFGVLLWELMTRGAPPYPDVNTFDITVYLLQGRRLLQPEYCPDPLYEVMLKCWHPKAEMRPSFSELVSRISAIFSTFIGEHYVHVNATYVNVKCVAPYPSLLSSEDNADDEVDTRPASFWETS
Protocol for HT-29 Cell line: 3.2 Cell Lines: HT-29 Cell line (from ATCC).
Test Protocol: The effects of the compounds on cancer cell multiplication was measured using Sulforhodamine B (SRB). Specifically, log phase cells are inoculated into the holes of 96-hole culture plates, allowed to grow using the wall-adhesion procedure at 37° C. under 5% CO2. The test compound at 9 different concentrations were added, each concentration in duplicate, with appropriate saline water and cell-less controls. The cells are cultured for a further 72 hours, and fixed with TCA, and SRB is added for staining, and washed, and air-dried. After adding the Tris solution, the OD value was measured at 510 nm using a Spectra Max 190. The rate of inhibition is calculated according to the formula below: Rate of Inhibition=(ODcontrol−ODdrug)/ODcontrol×100%.
The IC50 is calculated based on the above ratios.

As a reminder, the inhibition is the drop in the measured response relative to a control, in per cent. Consider `NC(=O)Nc1cc(-c2cccc(F)c2)sc1C(=O)N[C@H]1CCCNC1` [AZD7762], for which, on Chk2 (100 nM, read-out: Inhibition (%) (Mean ± SD) Chk2), the inhibition at 0.1 µM worked out at 99%.

By IC50 is commonly meant the concentration that inhibits the measured activity by half. Turning to `NC(=O)c1nnc(NC2CCCNC2)c2cc(-c3ccc(F)cc3)sc12` (centres unmarked) [Compound 1, 2-(4-fluorophenyl)-4-(3-piperidineamino)-thieno[2,3-d]pyridazine-7-carboxylic acid amide], the IC50 amounted to 1580 nM in the data set on Human colon cancer HT-29 [1] and 1880 nM with Mouse Lung Cancer (3LL).

With `O=c1[nH]cc(F)c(=O)[nH]1` [Compound 5-Fu, 5-fluorouracil], the concentration for half-maximal inhibition (IC50) was 1100 nM with HT-29 Cell line (setting [6]), 1000 nM in the data set on HT-29 Cell line (setting [7]), 300 nM with HT-29 Cell line (setting [8]) and 200 nM in the data set with HT-29 Cell line (setting [9]).

Regarding `N.N.[Cl][Pt][Cl]` [DDP, cisplatin], the IC50 with HT-29 Cell line (setting [7]) came out at 5200 nM; with HT-29 Cell line (setting [8]), 1300 nM; in the data set on HT-29 Cell line (setting [9]), 1300 nM; in the data set with HT-29 Cell line (setting [10]) it was 7700 nM.

On to `CC(=O)O[C@H]1C(=O)[C@@]2(C)[C@H]([C@H](OC(=O)c3ccccc3)[C@]3(O)C[C@H](OC(=O)[C@H](O)[C@@H](NC(=O)c4ccccc4)c4ccccc4)C(C)=C1C3(C)C)[C@]1(OC(C)=O)CO[C@@H]1C[C@@H]2O` [Paclitaxel, paclitaxel], for which the 50% inhibitory concentration (IC50) in the data set on HT-29 Cell line (setting [6]) is 3 nM; with HT-29 Cell line (setting [8]) it was 5 nM; in the data set with HT-29 Cell line (setting [9]), 2 nM.

For the molecule `CS(=O)(=O)O.CS(=O)(=O)O.O.O.c1cnc2ccc(Nc3nc(NC4CC4)c4nc[nH]c4n3)cc2c1` [XC302], in [2] (48 hours), the “IC50, inhibition of cancer cell multiplication, QGY-7701” value turned out to be 6.69 µg/mL. Also, the “IC50, inhibition of cancer cell multiplication, 3LL” value in the data set on mouse lung cancer 3LL was found to be 2.96 µg/mL. For the same molecule, the “IC50, inhibition of cancer cell multiplication, BGC-823” value in [3] (48 hours) is 4.77 µg/mL.

Consider `NC(=O)c1nnc(N[C@H]2CCCNC2)c2cc(-c3cccc(F)c3)sc12` [XC608], for which, on Chk2, the “effect on activity of Chk2 (in words)” value is “clearly inhibits; also recorded: strongly inhibits”. Further, the inhibition at 1 µM at Chk2 (1 μM, read-out: Inhibition (%) (Mean ± SD) Chk2) amounted to 90 ± 13.2%; on Chk1 (1 μM, read-out: Inhibition (%) (Mean ± SD) Chk1) it was 85 ± 11.1%; on c-Met (1 μM, read-out: Inhibition (%) (Mean ± SD) c-Met) it was 15.9%; on EGFR (1 μM, read-out: Inhibition (%) (Mean ± SD) EGFR) it was 15.9 ± 5.3%; on HER2 (1 μM, read-out: Inhibition (%) (Mean ± SD) HER2), 10.2 ± 1.3%. In addition, the “sensitizing effect on gemcitabine” value with HT-29 Cell line (cell cultures, gemcitabine) is “more than 20 times”. In addition, the “sensitizing effects on cytotoxic antitumor drugs at the cellular level (in words)” value in the data set on HT-29 Cell line (gemcitabine) is “strong sensitizing effects”; in the data set on HT-29 Cell line (gemcitabine, listed as XC-608) it was “effective in sensitizing”. The “effect on activity of Chk1 (in words)” value on Chk1 was “clearly inhibits; also recorded: strongly inhibits”. Also, on Chk1, the “specificity for Chk1 (conclusion in words)” value is given as “specific Chk1 inhibitor”. Also, the “sensitizing effects on the treatment effects of ADR and 5-fu (in words)” value (in the data set with human colon cancer HT-29 [4]; in data set [5]) was “significant sensitizing effects” throughout. Also, on c-Met, the “effect on c-met (in words)” value is given as “not apparent effect”. Further, the “effect on EGFR (in words)” value on EGFR was “not apparent effect”. Further, the half-inhibitory concentration (IC50) in data set [2] (Homo sapiens, QGY7701, 48 hours, read-out: IC50, inhibition of cancer cell multiplication, QGY-7701) stood at 5.14 µg/mL (≈ 13.8 µM); in the data set with mouse lung cancer 3LL (Mus musculus, read-out: IC50, inhibition of cancer cell multiplication, 3LL), 1.05 µg/mL (≈ 2.83 µM); in data set [3] (Homo sapiens, BGC-823, 48 hours, read-out: IC50, inhibition of cancer cell multiplication, BGC-823) it was 7.11 µg/mL (≈ 19.1 µM). The “effect on HER2 (in words)” value on HER2 was “not apparent effect”. In the data set with cdc2 phosphorylation, the “effect on cdc2 phosphorylation induced by topoisomerase I (in words)” value is recorded as “eliminates; also recorded: reduces”.

As for `O=C1[O][Pt]2([NH][C@@H]3CCCC[C@H]3[NH]2)[O]C1=O` [oxaliplatin], the IC50 turned out to be 2500 nM in the data set with HT-29 Cell line (setting [7]), 1100 nM in the data set on HT-29 Cell line (setting [8]), 1300 nM in the data set on HT-29 Cell line (setting [9]) and 1600 nM in the data set on HT-29 Cell line (setting [10]).
